In US5834427A, “Casein phosphopeptide, casein containing same and process for the preparation thereof” (Han; Sang Kee, priority 1995, dated 1998):
No end group written: not given here.

Experiment: Efficacy test for calcium solubilizing effect in vivo (soluble calcium in small intestine contents, atomic absorption spectrometer)
Parameters: species or system Wister Rats
Conditions: for Calcium concentration in the small intestine, Lower part / Calcium concentration in the small intestine, Total / Calcium concentration in the small intestine, Upper part: measured one hour after feeding, mean ± standard deviation
Method: Efficacy test for calcium solubilizing effect In vivo
Forty Wister Rats weighing about 120 g on an average were supplied with a controlled diet consisting of 24 wt % of crude proteins, 5 wt % of crude fats, 60 wt % of starches, 5 wt % of crude fibers, 5 wt % of minerals and 1 wt % of vitamins for a week and then starved for 24 hours. The rats were divided into 4 groups, each group including 10 rats.
Rats of the first group were supplied with a controlled diet including 10 wt % of the beta-casein H for 1.5 hours.
Rats of the second group were supplied with a controlled diet including 10 wt % of a conventional beta-casein for 1.5 hours.
Rats of the third group were supplied with a controlled diet including 1 wt % of the CPP in accordance with the present invention for 1.5 hours.
Rats of the fourth group were supplied with a controlled diet including 1 wt % of the conventional CPP for 1.5 hours.
All rats were allowed to freely have the controlled diets as much as they can. One hour after the completion of the above feeding, all rats were anesthetized, and the small intestines were excised therefrom. The small intestines were washed with a saline solution and then divided into two parts, i.e, the upper part and the lower part.
Thereafter, the contents in the small intestine were isolated, homogenized and centrifugated. A calcium in the supernant was measured three times by an atomic absorption spectrometer (Perkin Elmer Co.).

[1] = CPP feed, 3rd Group (inventive CPP) over 4th Group (conventional CPP)
[2] = CPP feed, controlled diet including 1 wt % CPP for 1.5 hours
[3] = casein feed, controlled diet including 10 wt % casein for 1.5 hours

Molecule	Improvement (%) of calcium concentration, Lower part [1] [%]	Improvement (%) of calcium concentration, Total [1] [%]	Improvement (%) of calcium concentration, Upper part [1] [%]	Improvement (%) of calcium concentration, Total (CPP feed, 3rd Group (inventive CPP) over 4th Group (conventional CPP), listed as present CPP) [%]	Calcium concentration in the small intestine, Lower part [2] [ppm]	Calcium concentration in the small intestine, Total [2] [ppm]	Calcium concentration in the small intestine, Upper part [2] [ppm]	Calcium concentration in the small intestine, Total (CPP feed, controlled diet including 1 wt % CPP for 1.5 hours, listed as present CPP) [ppm]	Calcium concentration in the small intestine, Lower part [3] [ppm]	Calcium concentration in the small intestine, Total [3] [ppm]	Calcium concentration in the small intestine, Upper part [3] [ppm]
CPP in accordance with the present invention: casein phosphopeptide of SEQ. ID NO: 1, 28 amino acids, 25th Arg of the conventional CPP substituted by Cys (RELEELNVPGEIVESLSSSEESITCINK; also: phosphorylated, sites not given here)	29.8	23.1	7.0	23	51.02 ± 3.1	68.20 ± 2.5	17.18 ± 1.9	68.20	–	–	–
conventional beta-casein: conventional beta-casein fed to the second group as comparison (protein, UniProt P02666 16-224, looked up) Beta-casein: RELEELNVPGEIVESLSSSEESITRINKKIEKFQSEEQQQTEDELQDKIHPFAQTQSLVYPFPGPIPNSLPQNIPPLTQTPVVVPPFLQPEVMGVSKVKEAMAPKHKEMPFPKYPVEPFTESQSLTLTDVENLHLPLPLLQSWMHQPHQPLPPTVMFPPQSVLSLSQSKVLPVPQKAVPYPQRDMPIQAFLLYQEPVLGPVRGPFPIIV	–	–	–	–	–	–	–	–	35.11 ± 2.3	50.60 ± 2.0	15.49 ± 1.7
